Active and inactive are the calls of the source. The calls are words filed in the database; no cut-off is given here.
Tests used:
[1] = AUC (0 to infinity) in Sprague-Dawley rat at 5 mg/kg, iv measured upto 48 hrs by LC-MS/MS analysis; assay type: ADME, organism-based; conditions: in vivo
MOLM-14 = experiment: Antiproliferative activity against human MOLM-14 cells harbouring FLT3-ITD assessed as inhibition of cell growth measured after 72 hrs by Celltiter-glo luminescent cell viability assay; assay type: functional, cell-based; conditions: MOLM-14, 72 h
HL-60 = experiment: Antiproliferative activity against human HL-60 cells harbouring wild type FLT3 assessed as inhibition of cell growth measured after 72 hrs by Celltiter-glo luminescent cell viability assay; assay type: functional, cell-based; conditions: HL-60, 72 h
K562 = experiment: Antiproliferative activity against human K562 cells assessed as inhibition of cell growth measured after 72 hrs by Celltiter-glo luminescent cell viability assay; assay type: functional, cell-based; conditions: K562, 72 h
U-87 MG = experiment: Antiproliferative activity against human U-87 MG cells assessed as inhibition of cell growth measured after 72 hrs by Celltiter-glo luminescent cell viability assay; assay type: functional, cell-based, U-87MG ATCC
SBC-5 = experiment: Antiproliferative activity against human SBC-5 cells assessed as inhibition of cell growth measured after 72 hrs by Celltiter-glo luminescent cell viability assay; assay type: functional, cell-based; conditions: SBC-5, 72 h
[2] = Antiproliferative activity against human PBMC cells assessed as inhibition of cell growth measured after 72 hrs by Celltiter-glo luminescent cell viability assay; assay type: toxicity, cell-based
MOLM-13 [3] = experiment: Inhibition of STAT5 phosphorylation in human MOLM-13 cells incubated for 2 hrs by Western blot analysis; assay type: cell-based; conditions: dose 0.04-5 µM
MOLM-13 [4] = experiment: Induction of cell cycle arrest in human MOLM-13 cells assessed as accumulation of cells at S phase at 3 uM measured after 48 hrs by PI staining based flow cytometry analysis (reference value: 45.3%); assay type: functional
MOLM-13 [5] = experiment: Induction of cell cycle arrest in human MOLM-13 cells assessed as accumulation of cells at S phase at 0.3 uM measured after 48 hrs by PI staining based flow cytometry analysis (reference value: 45.3%); assay type: functional
MOLM-13 [6] = experiment: Induction of cell cycle arrest in human MOLM-13 cells assessed as accumulation of cells at G1 phase at 0.3 uM measured after 48 hrs by PI staining based flow cytometry analysis (reference value: 42.8%); assay type: functional
MOLM-13 [7] = experiment: Induction of cell cycle arrest in human MOLM-13 cells assessed as accumulation of cells at G2 phase at 0.3 uM measured after 48 hrs by PI staining based flow cytometry analysis (reference value: 12.5%); assay type: functional
MOLM-13 [8] = experiment: Induction of apoptosis in human MOLM-13 cells assessed as viable cells at 1 uM measured after 48 hrs by annexin-V and PI staining based flow cytometry analysis (reference value: 88.7%); assay type: functional; conditions: read-out: Activity
MOLM-13 [9] = experiment: Induction of apoptosis in human MOLM-13 cells assessed as early apoptotic cells at 1 uM measured after 48 hrs by annexin-V and PI staining based flow cytometry analysis (reference value: 8.92%); assay type: functional
MOLM-13 [10] = experiment: Induction of apoptosis in human MOLM-13 cells assessed as early apoptotic cells at 3 uM measured after 48 hrs by annexin-V and PI staining based flow cytometry analysis (reference value: 8.92%); assay type: functional
MOLM-13 [11] = experiment: Induction of apoptosis in human MOLM-13 cells assessed as late apoptotic cells at 3 uM measured after 48 hrs by annexin-V and PI staining based flow cytometry analysis (reference value: 2.28%); assay type: functional
MOLM-13 [12] = experiment: Induction of apoptosis in human MOLM-13 cells assessed as necrotic cells at 1 uM measured after 48 hrs by annexin-V and PI staining based flow cytometry analysis (reference value: 0.087%); assay type: functional
MOLM-13 [13] = experiment: Induction of apoptosis in human MOLM-13 cells assessed as necrotic cells at 3 uM measured after 48 hrs by annexin-V and PI staining based flow cytometry analysis (reference value: 0.087%); assay type: functional
[14] = Tmax in Sprague-Dawley rat at 5 mg/kg, iv measured upto 48 hrs by LC-MS/MS analysis; assay type: ADME, organism-based; conditions: in vivo
[15] = MRT (0 to t) in Sprague-Dawley rat at 5 mg/kg, iv measured upto 48 hrs by LC-MS/MS analysis; assay type: ADME, organism-based; conditions: in vivo
[16] = Tmax in Sprague-Dawley rat at 20 mg/kg, po measured upto 48 hrs by LC-MS/MS analysis; assay type: ADME, organism-based; conditions: in vivo
[17] = AUC (0 to infinity) in Sprague-Dawley rat at 20 mg/kg, po measured upto 48 hrs by LC-MS/MS analysis; assay type: ADME, organism-based; conditions: in vivo
[18] = Toxicity in female NSG mouse assessed as effect on heart at 20 to 40 mg/kg, po measured after 21 days by H and E staining based analysis; assay type: organism-based; conditions: in vivo, 504 h, dose 20-40 mg/kg, time 21 day
[19] = biological target: Macrophage colony-stimulating factor 1 receptor (Homo sapiens, UniProt P07333); experiment: Inhibition of human FMS assessed as residual activity at 1 uM by Eurofins kinase assay relative to control
[20] = biological target: Aurora kinase A (Homo sapiens) (UniProt O14965); experiment: Inhibition of human AuroraA at 1 uM by Eurofins kinase assay
Aurora kinase A (Homo sapiens), sequence (O14965 whole entry): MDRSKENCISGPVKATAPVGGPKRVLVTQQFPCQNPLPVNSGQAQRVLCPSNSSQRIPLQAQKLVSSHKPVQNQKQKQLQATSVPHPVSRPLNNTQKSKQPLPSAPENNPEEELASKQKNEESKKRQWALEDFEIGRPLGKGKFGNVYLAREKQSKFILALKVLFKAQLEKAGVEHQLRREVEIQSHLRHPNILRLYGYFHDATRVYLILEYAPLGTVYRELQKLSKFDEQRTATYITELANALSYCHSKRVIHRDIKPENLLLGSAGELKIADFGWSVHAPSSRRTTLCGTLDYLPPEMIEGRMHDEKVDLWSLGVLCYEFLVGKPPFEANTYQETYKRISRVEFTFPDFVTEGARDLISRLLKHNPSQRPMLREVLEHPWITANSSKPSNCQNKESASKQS

[21] = biological target: Serine/threonine-protein kinase B-raf (Homo sapiens) (UniProt P15056); experiment: Inhibition of human BRAF at 1 uM by Eurofins kinase assay
Serine/threonine-protein kinase B-raf (Homo sapiens), sequence (P15056 whole entry): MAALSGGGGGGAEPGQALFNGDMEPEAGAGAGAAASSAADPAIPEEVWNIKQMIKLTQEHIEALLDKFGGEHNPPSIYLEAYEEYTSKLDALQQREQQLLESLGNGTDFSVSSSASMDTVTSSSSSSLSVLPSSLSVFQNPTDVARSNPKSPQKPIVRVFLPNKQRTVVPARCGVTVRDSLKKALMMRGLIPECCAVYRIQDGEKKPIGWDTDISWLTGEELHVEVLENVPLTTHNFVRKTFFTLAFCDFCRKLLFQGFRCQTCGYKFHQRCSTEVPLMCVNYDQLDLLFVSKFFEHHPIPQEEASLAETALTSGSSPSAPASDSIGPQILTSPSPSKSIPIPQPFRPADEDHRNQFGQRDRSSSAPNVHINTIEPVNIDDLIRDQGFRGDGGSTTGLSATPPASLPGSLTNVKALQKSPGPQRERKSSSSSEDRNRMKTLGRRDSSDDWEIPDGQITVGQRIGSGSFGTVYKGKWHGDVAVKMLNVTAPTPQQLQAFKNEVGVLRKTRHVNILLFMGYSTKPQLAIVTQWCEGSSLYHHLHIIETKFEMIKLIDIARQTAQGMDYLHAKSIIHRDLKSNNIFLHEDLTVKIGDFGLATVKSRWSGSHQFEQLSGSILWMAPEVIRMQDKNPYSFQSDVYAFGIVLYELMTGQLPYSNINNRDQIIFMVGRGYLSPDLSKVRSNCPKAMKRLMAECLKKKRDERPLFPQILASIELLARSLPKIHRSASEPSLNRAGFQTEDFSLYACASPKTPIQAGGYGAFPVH

[22] = biological target: Mast/stem cell growth factor receptor Kit (Homo sapiens) (UniProt P10721); experiment: Inhibition of human ckit at 1 uM by Eurofins kinase assay
Mast/stem cell growth factor receptor Kit (Homo sapiens), sequence (P10721 whole entry): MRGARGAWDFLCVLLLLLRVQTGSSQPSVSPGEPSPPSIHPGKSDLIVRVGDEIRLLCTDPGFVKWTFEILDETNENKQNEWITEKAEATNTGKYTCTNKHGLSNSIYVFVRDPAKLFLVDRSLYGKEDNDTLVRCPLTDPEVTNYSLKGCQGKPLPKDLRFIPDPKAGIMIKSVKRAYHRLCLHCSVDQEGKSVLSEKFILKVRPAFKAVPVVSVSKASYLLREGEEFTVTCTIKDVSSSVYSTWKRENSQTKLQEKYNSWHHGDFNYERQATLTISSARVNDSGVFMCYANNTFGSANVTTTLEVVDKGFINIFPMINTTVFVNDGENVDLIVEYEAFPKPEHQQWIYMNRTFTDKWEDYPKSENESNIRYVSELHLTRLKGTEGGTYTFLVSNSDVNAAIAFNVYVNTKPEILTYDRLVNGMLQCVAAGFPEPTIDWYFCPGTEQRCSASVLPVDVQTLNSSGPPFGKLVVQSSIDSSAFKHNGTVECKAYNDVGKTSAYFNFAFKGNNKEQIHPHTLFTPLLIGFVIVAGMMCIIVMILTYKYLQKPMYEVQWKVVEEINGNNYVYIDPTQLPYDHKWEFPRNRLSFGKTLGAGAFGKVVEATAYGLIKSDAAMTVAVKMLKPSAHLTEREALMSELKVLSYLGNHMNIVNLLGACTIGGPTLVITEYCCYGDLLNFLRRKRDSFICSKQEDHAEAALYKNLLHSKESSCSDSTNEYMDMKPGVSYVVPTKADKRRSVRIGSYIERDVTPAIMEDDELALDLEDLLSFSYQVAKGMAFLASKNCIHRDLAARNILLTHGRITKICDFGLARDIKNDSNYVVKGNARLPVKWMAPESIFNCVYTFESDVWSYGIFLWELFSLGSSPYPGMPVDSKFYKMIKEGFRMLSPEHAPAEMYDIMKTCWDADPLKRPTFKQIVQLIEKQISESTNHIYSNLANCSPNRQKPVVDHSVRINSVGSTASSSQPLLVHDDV

Homo sapiens [23] = species on record: Homo sapiens; experiment: Inhibition of human CDK1/cyclinB at 1 uM by Eurofins kinase assay
Homo sapiens [24] = species on record: Homo sapiens; experiment: Inhibition of human cSRC at 1 uM by Eurofins kinase assay
[25] = biological target: Epithelial discoidin domain-containing receptor 1 (Homo sapiens) (UniProt Q08345); experiment: Inhibition of human DDR1 at 1 uM by Eurofins kinase assay
[26] = biological target: Fibroblast growth factor receptor 1 (Homo sapiens) (UniProt P11362); experiment: Inhibition of human FGFR1 at 1 uM by Eurofins kinase assay
Fibroblast growth factor receptor 1 (Homo sapiens), sequence (P11362 22-822 limits assumed): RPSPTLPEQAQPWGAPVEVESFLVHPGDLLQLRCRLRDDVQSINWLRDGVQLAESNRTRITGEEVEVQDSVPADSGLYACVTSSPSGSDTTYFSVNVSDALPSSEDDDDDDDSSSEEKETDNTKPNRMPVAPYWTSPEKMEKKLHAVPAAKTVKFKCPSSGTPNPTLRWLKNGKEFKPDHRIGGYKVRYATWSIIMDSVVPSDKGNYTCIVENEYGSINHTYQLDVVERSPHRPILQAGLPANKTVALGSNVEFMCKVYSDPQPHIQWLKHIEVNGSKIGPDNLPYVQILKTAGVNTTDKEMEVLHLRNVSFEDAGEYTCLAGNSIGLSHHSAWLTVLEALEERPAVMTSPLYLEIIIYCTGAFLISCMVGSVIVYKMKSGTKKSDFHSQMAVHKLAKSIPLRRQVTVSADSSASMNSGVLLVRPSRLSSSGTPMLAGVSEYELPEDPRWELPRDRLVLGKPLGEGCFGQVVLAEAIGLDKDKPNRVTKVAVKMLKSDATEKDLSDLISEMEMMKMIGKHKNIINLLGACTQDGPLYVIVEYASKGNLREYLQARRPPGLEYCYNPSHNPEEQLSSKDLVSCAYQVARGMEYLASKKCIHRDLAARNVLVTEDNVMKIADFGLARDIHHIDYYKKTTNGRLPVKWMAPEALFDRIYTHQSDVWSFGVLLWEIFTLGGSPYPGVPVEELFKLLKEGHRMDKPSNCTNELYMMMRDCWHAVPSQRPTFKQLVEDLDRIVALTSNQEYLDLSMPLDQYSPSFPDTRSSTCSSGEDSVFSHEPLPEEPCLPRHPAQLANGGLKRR

[27] = system: Receptor-type tyrosine-protein kinase FLT3 (Homo sapiens), P36888 [UNDEFINED MUTATION]; experiment: Inhibition of human FLT3-ITD at 1 uM by Eurofins kinase assay
[28] = biological target: Insulin receptor (Homo sapiens) (UniProt P06213); experiment: Inhibition of human INSR at 1 uM by Eurofins kinase assay
Insulin receptor (Homo sapiens), sequence (P06213 28-758 limits assumed): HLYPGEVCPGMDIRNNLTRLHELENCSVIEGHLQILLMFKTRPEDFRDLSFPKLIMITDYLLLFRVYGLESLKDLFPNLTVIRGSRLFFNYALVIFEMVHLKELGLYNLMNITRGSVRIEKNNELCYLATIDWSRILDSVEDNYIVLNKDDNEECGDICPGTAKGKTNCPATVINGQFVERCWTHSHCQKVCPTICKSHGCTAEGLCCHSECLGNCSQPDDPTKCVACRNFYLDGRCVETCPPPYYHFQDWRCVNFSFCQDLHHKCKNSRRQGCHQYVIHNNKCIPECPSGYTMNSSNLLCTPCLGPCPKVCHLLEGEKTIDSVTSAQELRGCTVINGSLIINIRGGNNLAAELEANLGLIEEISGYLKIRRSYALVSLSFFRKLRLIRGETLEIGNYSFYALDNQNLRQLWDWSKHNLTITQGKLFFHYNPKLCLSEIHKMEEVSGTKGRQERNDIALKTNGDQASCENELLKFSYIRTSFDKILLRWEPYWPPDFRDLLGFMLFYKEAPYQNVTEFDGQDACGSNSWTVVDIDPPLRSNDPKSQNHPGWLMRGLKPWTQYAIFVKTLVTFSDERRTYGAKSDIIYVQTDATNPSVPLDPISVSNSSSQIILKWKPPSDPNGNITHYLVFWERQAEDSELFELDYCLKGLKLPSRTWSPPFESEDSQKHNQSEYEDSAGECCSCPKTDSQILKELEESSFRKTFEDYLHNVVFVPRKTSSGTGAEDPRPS
Insulin receptor (Homo sapiens), sequence (P06213 763-1382 limits assumed): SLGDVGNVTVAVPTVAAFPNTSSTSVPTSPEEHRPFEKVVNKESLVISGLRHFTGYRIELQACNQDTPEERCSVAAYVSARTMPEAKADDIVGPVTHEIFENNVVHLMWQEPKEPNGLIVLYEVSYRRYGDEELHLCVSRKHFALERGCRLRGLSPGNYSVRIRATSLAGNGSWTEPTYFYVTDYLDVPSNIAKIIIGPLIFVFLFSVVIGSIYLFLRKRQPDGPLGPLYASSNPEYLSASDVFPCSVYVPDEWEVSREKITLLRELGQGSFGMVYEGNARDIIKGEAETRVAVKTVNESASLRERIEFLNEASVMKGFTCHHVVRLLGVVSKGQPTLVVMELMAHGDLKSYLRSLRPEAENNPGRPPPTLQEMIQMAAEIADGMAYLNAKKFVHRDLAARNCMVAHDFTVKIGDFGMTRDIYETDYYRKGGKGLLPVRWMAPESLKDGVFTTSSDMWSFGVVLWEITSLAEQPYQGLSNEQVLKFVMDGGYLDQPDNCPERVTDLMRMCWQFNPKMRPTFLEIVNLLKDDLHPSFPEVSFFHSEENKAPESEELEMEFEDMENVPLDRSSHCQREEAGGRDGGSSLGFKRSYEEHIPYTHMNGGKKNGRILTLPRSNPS

[29] = biological target: Tyrosine-protein kinase JAK2 (Homo sapiens) (UniProt O60674); experiment: Inhibition of human JAK2 at 1 uM by Eurofins kinase assay
[30] = biological target: Mitogen-activated protein kinase 8 (Homo sapiens) (UniProt P45983); experiment: Inhibition of human JNK1 at 1 uM by Eurofins kinase assay
[31] = biological target: Serine/threonine-protein kinase Nek2 (Homo sapiens) (UniProt P51955); experiment: Inhibition of human NEK2 at 1 uM by Eurofins kinase assay
Homo sapiens [32] = species on record: Homo sapiens; experiment: Inhibition of human Rct at 1 uM by Eurofins kinase assay
[33] = biological target: High affinity nerve growth factor receptor (Homo sapiens) (UniProt P04629); experiment: Inhibition of human TrkA at 1 uM by Eurofins kinase assay
High affinity nerve growth factor receptor (Homo sapiens), sequence (P04629 33-796 limits assumed): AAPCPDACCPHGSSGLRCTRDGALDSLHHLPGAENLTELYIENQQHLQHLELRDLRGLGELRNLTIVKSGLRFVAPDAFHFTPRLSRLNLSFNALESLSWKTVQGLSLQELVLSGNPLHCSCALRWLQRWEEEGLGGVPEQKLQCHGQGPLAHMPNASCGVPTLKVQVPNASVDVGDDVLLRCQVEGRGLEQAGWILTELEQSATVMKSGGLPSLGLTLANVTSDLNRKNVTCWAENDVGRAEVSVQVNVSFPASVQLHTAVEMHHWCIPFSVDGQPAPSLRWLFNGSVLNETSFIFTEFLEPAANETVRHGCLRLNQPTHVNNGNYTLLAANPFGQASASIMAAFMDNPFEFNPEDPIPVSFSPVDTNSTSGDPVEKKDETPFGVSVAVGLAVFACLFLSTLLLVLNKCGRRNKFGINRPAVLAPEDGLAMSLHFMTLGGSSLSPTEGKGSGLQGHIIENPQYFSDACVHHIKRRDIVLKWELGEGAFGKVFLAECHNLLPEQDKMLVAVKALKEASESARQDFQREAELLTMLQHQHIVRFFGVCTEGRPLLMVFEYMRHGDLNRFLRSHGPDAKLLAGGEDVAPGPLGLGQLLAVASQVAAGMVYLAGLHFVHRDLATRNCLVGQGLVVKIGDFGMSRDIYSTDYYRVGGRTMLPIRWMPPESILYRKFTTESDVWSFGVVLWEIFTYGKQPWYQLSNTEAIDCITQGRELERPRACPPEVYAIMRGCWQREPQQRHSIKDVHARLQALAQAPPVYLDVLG

[34] = biological target: Receptor-type tyrosine-protein kinase FLT3 (Homo sapiens, UniProt P36888, ITD); experiment: Inhibition of FLT3 ITD mutant (unknown origin) preincubated for 10 mins followed by addition of peptide solution by caliper mobility shift assay

AUC(0-inf) [1]: 59.4 µg·h/mL | IC50 (MOLM-14): 0.22 µM | IC50 (HL-60): 7.7 µM | IC50 (K562): 16.6 µM | IC50 (U-87 MG): > 30 µM | Tmax [14]: 1.8 min | MRT last at 48 h [15]: 3.01 h | Tmax [16]: 1.83 h | AUC(0-inf) [17]: 46.1 µg·h/mL | Activity [19]: 22% | inhibition [20]: inactive | inhibition [21]: inactive | inhibition [22]: inactive | inhibition (Homo sapiens [23]): inactive | inhibition (Homo sapiens [24]): inactive | inhibition [25]: inactive | inhibition [26]: inactive | inhibition [27]: inactive | inhibition [28]: inactive | inhibition [29]: inactive | inhibition [30]: inactive | inhibition [31]: inactive | inhibition (Homo sapiens [32]): inactive | inhibition [33]: inactive | IC50 [34]: 0.069 µM
Structure (SMILES): O=C(Nc1ccc(Oc2ccnc(NC(=O)N3CC(O)C3)c2)c(F)c1)c1cn(-c2cccnc2)nn1
IC50 (SBC-5): > 30 µM | IC50 at 72 h [2]: > 30 µM | inhibition (MOLM-13 [3]): Dose-dependent-effect | Activity (MOLM-13 [4]): 4.87% | Activity (MOLM-13 [5]): 14% | Activity (MOLM-13 [6]): 79.4% | Activity (MOLM-13 [7]): 4.21% | viability at 1 µM (MOLM-13 [8]): 56.7% | Activity (MOLM-13 [9]): 33.6% | Activity (MOLM-13 [10]): 38.4% | Activity (MOLM-13 [11]): 11% | Activity (MOLM-13 [12]): 0.26% | Activity (MOLM-13 [13]): 0.097% | Activity [18]: Non-toxic

Reference: ChEMBL document CHEMBL6074715, “Discovery of pyridine-based derivatives as FLT3 inhibitors for the treatment of acute myeloid leukemia” (Eur J Med Chem, 2025)
